Data as given in patent publication US7214709B2, “Arginine/ascorbic acid mixed powder as an oral supplement” (priority 2000, dated 2007).

Test system: O=NOO- derived from the reaction of NO· with O2·-
Assay: Formation of peroxynitrite from reaction of NO radical with superoxide
Settings: in vitro and in vivo condition
Description: Ascorbate is a typical scavenger of O2·^− and thus could inhibit the production of O═NOO^−. […] Based on this discovery, an administration of a great amount of arginine combined with ascorbic acid in an amount 1/5 times and more, for example from 1/5 to 20 times, especially from 1.5 to 20 times the amount of the arginine can be expected to prevent peroxidative injuries of cells caused by the ion, O═NOO^−. Therefore, the present invention also includes the following embodiments.

Structure (SMILES): O=C1O[C@H]([C@@H](O)CO)C(O)=C1O [ascorbic acid, L-ascorbic acid]
- Formation of O=NOO- (peroxynitrite): retards formation
